Experimental data: BindingDB's records for doi:10.7270/Q2ZG6QNM (University of Pittsburgh, 2008)

Molecular target: T1, Serine/threonine-protein kinase D1 (Homo sapiens, UniProt Q15139)
T1 sequence (Q15139 whole entry): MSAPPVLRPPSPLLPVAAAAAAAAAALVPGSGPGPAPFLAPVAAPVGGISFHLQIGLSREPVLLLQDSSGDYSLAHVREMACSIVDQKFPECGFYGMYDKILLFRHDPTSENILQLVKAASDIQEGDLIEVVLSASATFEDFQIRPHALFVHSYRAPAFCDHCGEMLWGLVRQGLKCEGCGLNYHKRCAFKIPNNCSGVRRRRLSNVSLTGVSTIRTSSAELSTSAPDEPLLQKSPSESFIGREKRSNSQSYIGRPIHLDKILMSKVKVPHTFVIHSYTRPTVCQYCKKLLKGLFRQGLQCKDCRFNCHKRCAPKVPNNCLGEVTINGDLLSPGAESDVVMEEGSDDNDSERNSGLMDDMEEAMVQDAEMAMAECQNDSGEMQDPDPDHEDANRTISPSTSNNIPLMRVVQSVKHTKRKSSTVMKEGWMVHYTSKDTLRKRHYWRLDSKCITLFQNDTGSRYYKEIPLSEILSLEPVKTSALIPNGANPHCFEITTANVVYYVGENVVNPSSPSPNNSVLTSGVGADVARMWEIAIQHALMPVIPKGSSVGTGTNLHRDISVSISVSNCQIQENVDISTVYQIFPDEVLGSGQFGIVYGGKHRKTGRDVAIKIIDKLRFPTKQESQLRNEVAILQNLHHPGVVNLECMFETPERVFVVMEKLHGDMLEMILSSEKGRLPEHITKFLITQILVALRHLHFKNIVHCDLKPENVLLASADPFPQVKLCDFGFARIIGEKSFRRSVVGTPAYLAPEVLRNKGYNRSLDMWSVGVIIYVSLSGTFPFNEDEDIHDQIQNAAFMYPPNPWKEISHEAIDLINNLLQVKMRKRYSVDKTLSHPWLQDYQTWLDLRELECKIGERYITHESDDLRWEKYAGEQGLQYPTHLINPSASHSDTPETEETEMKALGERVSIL
Assay: fluorescence polarization artefacts, biochemical, 57K campaign, artefact control, dose response (AID 1342)

Row | IC50 | Compound
1 | > 50 µM | O=C1CSCN1c1cc(Cl)ccc1Cl [3-(2,5-dichlorophenyl)-1,3-thiazolan-4-one]
2 | > 50 µM | COC(=O)c1c(NC(=O)C2C3CCC(C3)C2C(=O)O)sc2c1CCCCC2 (stereo not drawn) [SMR000298221]
3 | > 50 µM | Cn1cccc1C(=O)NC(=O)COC(=O)c1cc(S(=O)(=O)N2CCCCC2)ccc1Cl [[2-[(1-methylpyrrol-2-yl)carbonylamino]-2-oxidanylidene-ethyl] 2-chloranyl-5-piperidin-1-ylsulfonyl-benzoate]
4 | > 50 µM | O=C(CSc1ccc2nnc(-c3cccnc3)n2n1)c1ccccc1 [1-phenyl-2-[[3-(3-pyridinyl)-[1,2,4]triazolo[4,3-b]pyridazin-6-yl]thio]ethanone]
5 | > 50 µM | O=C(Nc1ccccc1C(=O)N1CCCC1)C1COc2ccccc2O1 (stereo not drawn) [SMR000287780]
6 | > 50 µM | O=C(CSc1ccncc1)Nc1ccc2ccccc2c1 [N-naphthalen-2-yl-2-pyridin-4-ylsulfanylacetamide]
7 | 16.7 µM | CC(N=Nc1ncc(Cl)cc1Cl)c1ccccn1 (stereo not drawn) [3,5-dichloro-N-(1-pyridin-2-ylethylideneamino)pyridin-2-amine]
8 | > 50 µM | COc1ccc(Cn2c(=O)[nH]c3cc(C(=O)NC4CCCC4)ccc3c2=O)cc1 [MLS000730065]
9 | > 50 µM | CSc1ccccc1C(=O)NCc1ccc(F)cc1
10 | > 50 µM | Cc1cc(NC(=O)CCC(=O)N(Cc2ccco2)C(C(=O)NCC2CCCO2)c2ccncc2)no1 (stereo not drawn) [N'-(furan-2-ylmethyl)-N-(5-methyl-1,2-oxazol-3-yl)-N'-[2-oxidanylidene-2-(oxolan-2-ylmethylamino)-1-pyridin-4-yl-ethyl]butanediamide]
11 | > 50 µM | Cc1c(C#N)c(N)nc(Cl)c1C#N [2-amino-6-chloro-4-methyl-3,5-pyridinedicarbonitrile]
12 | > 50 µM | O=C(NNC1=Nc2cccc3cccc1c23)c1ccc(Br)cc1 [SMR000260645]
13 | > 50 µM | O=C(O)c1cc(C(=O)C2CCCCC2)c[nH]1 [4-(cyclohexylcarbonyl)-1H-pyrrole-2-carboxylic acid]
14 | > 50 µM | O=[N+]([O-])c1ccc(Nc2c3ccccc3nc3ccccc23)cc1 [MLS000723809]
15 | > 50 µM | CC1Cc2ccccc2N1c1ncnc(N)c1[N+](=O)[O-] (stereo not drawn) [6-(2-methyl-2,3-dihydro-1H-indol-1-yl)-5-nitro-4-pyrimidinamine]
16 | > 50 µM | CCCc1cc(=O)[nH]c(SCCCCN2C(=O)c3ccccc3C2=O)n1 [2-[4-[(4-oxidanylidene-6-propyl-1H-pyrimidin-2-yl)sulfanyl]butyl]isoindole-1,3-dione]
17 | > 50 µM | COc1ccc(CNC(=O)C2Cc3ccccc3CN2C(=O)c2ccco2)cc1 (stereo not drawn) [SMR000343177]
18 | > 50 µM | CCOC(=O)c1sc(=NC(=O)CCS(=O)(=O)c2ccccc2)n(C)c1C [2-[3-(benzenesulfonyl)-1-oxopropyl]imino-3,4-dimethyl-5-thiazolecarboxylic acid ethyl ester]
